Tests used:
5-HT2A receptor = target: T1, 5-HT2A receptor (Mus musculus, UniProt P35363); details: 1 mg/kg i.p., 30 min, same assay conditions; data from Halberstadt et al. 2019; cited from earlier work
T1 construct: tissue Jackson Laboratories; host or cells: living male C57BL/6J mice (whole animal, brain)

[1] = Psychedelic effect in volunteers experienced with ALD-52; assay type: in vivo, humans; details: human volunteers; for Substitution for ALD-52 / Emax: administered as tartrate salt; for Emax: relative to ALD-52 = 1, read-out: Maximum psychedelic effect produced (ALD-52 = 1); for Duration: duration of effect relative to ALD-52
Description: Compounds of the invention were tested on volunteers who were experienced with the use of the related compound ALD-52. For each compound, a solution was prepared by dissolving the tartrate salt in deionized water to produce a concentration either of 1 mg/ml of the tartrate salt, or calculated to be equivalent to 1 mg/ml of the free base. This was either administered directly, or was prepared into standardised dosage units by pipetting 0.1 ml of solution onto a square of perforated blotter paper, which was placed overnight in a desiccator and allowed to evaporate to dryness.

[2] = Preventative treatment of chronic cluster headache attacks in volunteers, eight weeks; assay type: in vivo, humans; details: for average self-rated severity of cluster headache attacks: baseline 8.78/10; for average cluster headache attacks per day: baseline 3.44 attacks per day
From the text: Eighteen volunteers were recruited through cluster headache support groups in the Netherlands. Age range of volunteers was between 23 to 67 (average 45.17), 14 males and 4 females. All volunteers had previous experience using psychedelic drugs such as LSD or psilocybin to alleviate cluster headache attacks, as well as prescribed medications including verapamil, prednisone, sumatriptan, topiramate and indomethacin. Volunteers were asked to discontinue use of prescribed medications for five days preceding the commencement of the study and for the eight-week duration.
Participants were supplied standardised 3.0 mg dosage units of SYN-L-017 as the tartrate salt (equivalent to 2.58 mg of SYN-L-017 freebase), measured into capsules for oral administration. These were tested as a preventative for chronic cluster headache attacks. One 3 mg capsule was administered intermittently in a pattern of one day on, two days off for a period of eight weeks (using the protocol described in Karst et al. (Karst M, et al. The non-hallucinogen 2-bromo-lysergic acid diethylamide as preventative treatment for cluster headache: An open, non-randomized case series. Cephalalgia 2010; 30(9):1140-1144. DOI: 10.1177/0333102410363490)) and the volunteers were asked to keep a diary to track the frequency and self-rated severity of cluster headache attacks on a scale of 1-10.

T1 sequence (P35363 whole entry): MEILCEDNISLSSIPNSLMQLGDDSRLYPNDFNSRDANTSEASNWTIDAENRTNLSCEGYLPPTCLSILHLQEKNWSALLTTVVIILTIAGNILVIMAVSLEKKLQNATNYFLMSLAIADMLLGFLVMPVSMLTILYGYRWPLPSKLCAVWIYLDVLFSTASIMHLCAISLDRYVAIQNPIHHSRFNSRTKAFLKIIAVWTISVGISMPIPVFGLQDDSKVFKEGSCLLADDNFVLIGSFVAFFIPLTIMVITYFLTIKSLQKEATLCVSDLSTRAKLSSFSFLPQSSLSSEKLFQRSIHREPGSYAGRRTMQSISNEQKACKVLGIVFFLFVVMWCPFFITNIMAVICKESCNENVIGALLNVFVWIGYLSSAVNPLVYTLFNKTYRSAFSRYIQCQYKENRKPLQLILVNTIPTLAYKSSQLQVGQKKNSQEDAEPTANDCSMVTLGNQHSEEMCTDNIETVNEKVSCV

| SMILES | Substitution for ALD-52 [1] | Emax [1] [%] | further results |
| --- | --- | --- | --- |
| CCN(CC)C(=O)[C@@H]1C=C2c3cccc4c3c(cn4C(C)=O)C[C@H]2N(C)C1 [ALD-52, 1-acetyl-d-lysergic acid diethylamide] |  |  | average HTR count (5-HT2A receptor): 16.6 |
| CCCCCCCCCCCC(=O)n1cc2c3c(cccc31)C1=C[C@@H](C(=O)N(CC)CC)CN(C)[C@@H]1C2 [SYN-L-004, 1-dodecanoyl-lysergic acid diethylamide] | Partial | 25 | Duration [1]: Slightly longer |
| CCN(CC)C(=O)[C@@H]1C=C2c3cccc4c3c(cn4C(=O)c3ccccc3C)C[C@H]2N(C)C1 [SYN-L-008, 1-(o-toluoyl)-lysergic acid diethylamide] | Partial | 25 |  |
| CCN(CC)C(=O)[C@@H]1C=C2c3cccc4c3c(cn4S(=O)(=O)C3CC3)C[C@H]2N(C)C1 [SYN-L-014, 1-cyclopropanesulfonyl-lysergic acid diethylamide] | No substitution | 0 |  |
| CCC(=O)n1c(Br)c2c3c(cccc31)C1=C[C@@H](C(=O)N(CC)CC)CN(C)[C@@H]1C2 [SYN-L-017, 1-propionyl-2-bromo-lysergic acid diethylamide] | No substitution | 0 | average self-rated severity of cluster headache attacks ([2]; after four weeks, 3 mg tartrate capsule oral, one day on, two days off): 4.46 /10; average cluster headache attacks per day ([2]; after four weeks): 2.13 attacks per day; side effects consistent with psychedelic effects ([2]; eight-week study): No side effects consistent with psychedelic effects were reported; volunteers reporting no side effects of any significance ([2]; eight-week study): 75%; volunteers reporting side effects including dizziness, nausea, fatigue, difficulty concentrating and insomnia ([2]; eight-week study): 25%; volunteers who thought the drug more effective than their normally used prescribed medication ([2]; eight-week study): 83.33%; perceived severity of side effects ([2]; eight-week study, none rated moderate or severe): mild; average cluster headache attacks per day ([2]; end of the eight weeks): 1.78 attacks per day; average self-rated severity of cluster headache attacks ([2]; end of the eight weeks): 3.72 /10; volunteers reporting improvement of cluster headache symptoms ([2]; overall, eight-week study): 91.67% |
| CCN(CC)C(=O)[C@@H]1C=C2c3cccc4c3c(cn4C(=O)C(C)(C)C)C[C@H]2N(C)C1 [SYN-L-024, 1-pivaloyl-lysergic acid diethylamide] | Partial | 25 | Duration [1]: Shorter duration |
| CCCCCCCCCCCCCCCCCC(=O)n1cc2c3c(cccc31)C1=C[C@@H](C(=O)N(CC)CC)CN(C)[C@@H]1C2 [SYN-L-042, 1-stearoyl-lyserqic acid diethylamide] | Partial | 25 |  |
| CCCCCCCC/C=C\CCCCCCCC(=O)n1cc2c3c(cccc31)C1=C[C@@H](C(=O)N(CC)CC)CN(C)[C@@H]1C2 [SYN-L-043, 1-oleoyl-lyserqic acid diethylamide] | Partial | 25 |  |
| C=CCN1C[C@H](C(=O)N(C)C(C)C)C=C2c3cccc4c3c(cn4C(=O)CC)C[C@H]21 [SYN-L-073, 1-propionyl-6-allyl-6-nor-lysergic acid methylisopropylamide] | Partial | 50 |  |
| CC(=O)n1cc2c3c(cccc31)C1=C[C@@H](C(=O)N3CCOCC3)CN(C)[C@@H]1C2 [SYN-L-196, 1-acetyl-lysergic acid morpholide] | Partial | 50 |  |
| CCC(=O)n1cc2c3c(cccc31)C1=C[C@@H](C(=O)N(CC)C3CC3)CN(C)[C@@H]1C2 [SYN-L-197, 1-propionyl-lyserqic acid ethylcyclopropylamide] | Partial | 50 |  |
| C=C(C)CN1C[C@H](C(=O)N(CC)CC)C=C2c3cccc4c3c(cn4C(=O)CC)C[C@H]21 [SYN-L-203, 1-propionyl-6-methallyl-6-nor-lysergic acid diethylamide] | Partial | 25 |  |

Source: US20260062408A1, “PRODRUGS OF S[…]” (SYNEX HOLDINGS BV, priority 2022, published 2026)
